We go through nine molecules from US12091402B2 (Avilar Therapeutics, Inc., priority 2021, dated 2024).

This assay concerns the target T1, ASGPR (Homo sapiens, UniProt P07306).
T1 sequence (P07306 1-291): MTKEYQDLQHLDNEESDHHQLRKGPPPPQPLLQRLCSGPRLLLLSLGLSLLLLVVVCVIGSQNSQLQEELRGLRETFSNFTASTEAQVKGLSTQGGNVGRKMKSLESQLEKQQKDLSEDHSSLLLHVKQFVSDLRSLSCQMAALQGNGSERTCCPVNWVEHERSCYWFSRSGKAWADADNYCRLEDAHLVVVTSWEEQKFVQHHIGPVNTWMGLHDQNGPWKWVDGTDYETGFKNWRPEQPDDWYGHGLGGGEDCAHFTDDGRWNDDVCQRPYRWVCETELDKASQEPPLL
The assay can be described thus: Affinity to ASGPR by surface plasmon resonance (SPR). (In general: Surface plasmon resonance follows binding to a sensor surface in real time, without labels.)

Where a SMILES comes first, the peptide text is derived from it. Bridges are numbered along the chain shown (N, C = ends). The star is where a group is joined. X4 = O=C(CCCc1cn(C[C@H]2OC[C@H](Nc3nccc(C(F)(F)F)n3)[C@@H](O)[C@H]2O)nn1)*; PEG4 = NCCOCCOCCOCCOCCC(=O)O

On to `N#Cc1nc(N[C@H]2CO[C@H](CO)[C@H](O)[C@@H]2O)cc(C(F)(F)F)n1` [A79, 4-(((3S,4R,5R,6R)-4,5-dihydroxy-6-(hydroxymethyl)tetrahydro-2H-pyran-3-yl)amino)-6-(trifluoromethyl)pyrimidine-2-carbonitrile], for which the Kd (usually the equilibrium constant for the complex coming apart) is greater than 20000 nM.

The molecule `O=C(CCOCC(COCCC(=O)NCCOCCOCCOCCOC[C@H]1OC[C@H](Nc2nccc(C(F)(F)F)n2)[C@@H](O)[C@H]1O)NC(=O)COCCOCCOCC(=O)NCCN1C(=O)C=CC1=O)NCCOCCOCCOCCOC[C@H]1OC[C@H](Nc2nccc(C(F)(F)F)n2)[C@@H](O)[C@H]1O` [A130] registered a Kd of less than 100 nM.

Regarding `CC(C)C[C@@H]1NC(=O)[C@@H](NC(=O)[C@@H](NC(=O)[C@H](CCC(N)=O)NC(=O)[C@H](Cc2c[nH]cn2)NC(=O)CCOCCOCCOCCOCCNC(=O)CCCc2cn(C[C@H]3OC[C@H](Nc4nccc(C(F)(F)F)n4)[C@@H](O)[C@H]3O)nn2)C(C)C)CSSC[C@@H](C(=O)N[C@@H](Cc2ccccc2)C(=O)N[C@@H](CO)C(=O)N[C@H](C(N)=O)[C@@H](C)O)NC(=O)[C@H](C(C)C)NC(=O)[C@@H]2CCCN2C(=O)[C@H](CCCNC(=N)N)NC(=O)CNC(=O)[C@H](CCCNC(=N)N)NC(=O)[C@H](Cc2ccc(O)cc2)NC(=O)[C@H](CO)NC1=O` [Compound 18] ({X4-PEG4}-HQVCLSYRGRPVCFST-NH2; disulfide 4-13), the Kd is 500 to 1000 nM.

Molecule `O=C(O)COCCOCCOCC(=O)NC(COCCC(=O)NCCOCCOCCOCCOC[C@H]1OC[C@H](Nc2nccc(C(F)(F)F)n2)[C@@H](O)[C@H]1O)COCCC(=O)NCCOCCOCCOCCOC[C@H]1OC[C@H](Nc2nccc(C(F)(F)F)n2)[C@@H](O)[C@H]1O` [A23, 1-((2R,3R,4R,5S)-3,4-dihydroxy-5-((4-(trifluoromethyl)pyrimidin-2-yl)amino)tetrahydro-2H-pyran-2-yl)-20-(1-((2R,3R,4R,5S)-3,4-dihydroxy-5-((4-(trifluoromethyl)pyrimidin-2-yl)amino)tetrahydro-2H-pyran-2-yl)-15-oxo-2,5,8,11,18-pentaoxa-14-azanonadecan-19-yl)-15,22-dioxo-2,5,8,11,18,24,27,30-octaoxa-14,21-diazadotriacontan-32-oic acid] gave a Kd of less than 100 nM.

In the case of `[N-]=[N+]=NCCOCCOCCOCCOC[C@H]1OC[C@H](Nc2cncc(C(F)(F)F)n2)[C@@H](O)[C@H]1O` [A21, (2R,3R,4R,5S)-2-(13-azido-2,5,8,11-tetraoxatridecyl)-5-((6-(trifluoromethyl)pyrazin-2-yl)amino)tetrahydro-2H-pyran-3,4-diol], the Kd fell in the range of 100 to 500 nM.

As for `C[C@@H]1O[C@H](CO)[C@H](O)[C@H](O)[C@H]1Nc1nccc(C(F)(F)F)n1` [A55, (2R,3R,4R,5R,6S)-2-(hydroxymethyl)-6-methyl-5-((4-(trifluoromethyl)pyrimidin-2-yl)amino)tetrahydro-2H-pyran-3,4-diol], the Kd fell in the range of 10000 to 100000 nM.

Take `C=CCO[C@H]1O[C@H](Cn2cc(CO)nn2)[C@H](O)[C@H](O)[C@H]1NC(=O)C(F)(F)F` [A63, N-((2S,3R,4R,5R,6R)-2-(allyloxy)-4,5-dihydroxy-6-((4-(hydroxymethyl)-1H-1,2,3-triazol-1-yl)methyl)tetrahydro-2H-pyran-3-yl)-2,2,2-trifluoroacetamide]: the Kd lay within 1000 to 10000 nM.

With `C=CCO[C@H]1O[C@H](Cn2ccnn2)[C@H](O)[C@H](O)[C@H]1NC(=O)C(F)(F)F` [A70, N-((2S,3R,4R,5R,6R)-6-((1H-1,2,3-triazol-1-yl)methyl)-2-(allyloxy)-4,5-dihydroxytetrahydro-2H-pyran-3-yl)-2,2,2-trifluoroacetamide], the Kd is less than 1000 nM.

The molecule `NC[C@H]1OC[C@H](Nc2cncc(C(F)(F)F)n2)[C@@H](O)[C@H]1O` [A89, (2R,3R,4R,5S)-2-(aminomethyl)-5-((6-(trifluoromethyl)pyrazin-2-yl)amino)tetrahydro-2H-pyran-3,4-diol] registered a Kd of less than 1000 nM.
